Patent US20190111040A1, “IN VIVO AMELIORATION OF ENDOGENOUS ANTI-TUMOR AUTOANTIBODIES TARGETING SURFACE TUMOR ANTIGENS VIA LOW-DOSE P4N” (THE JOHNS HOPKINS UNIVERSITY, priority 2016, published 2019)
Structures can show the parent of a compound that is named as a salt.

Legend:
Type in all cases: cell-based
[1] = tested on: human PBMCs; assay: PBMC proliferation assay; conditions: 48 h
Experimental: PBMC proliferation assay. Two hundred microliters of PBMCs (5×10^4 cells/ml) were seeded in each well of a 96-well culture plate and treated with increasing concentrations of P4N (0.38, 0.75, 1.5, 3 or 6 μM) for 48 h. The number of viable cells was evaluated by MTT assay and a cell proliferation index was calculated as follows: Proliferation index=(OD595 of sample)/(OD595 of the untreated cells)×100%. PBMCs were also treated with or without P4N (0.75, 1.5 or 3 μM) for 48 h, and probed with anti-CD20 antibodies (Roche, Mannheim, Germany) and FITC-conjugated goat anti-human IgG polyclonal antibodies (SouthernBiotech, Birmingham, Ala.). The percentage of B cells in treated PBMCs was determined by flow cytometry (BD Biosciences, Mountain View, Calif.), and the indices of B cell proliferation were calculated as follows: (the number of PBMCs×the percentage of B cells in treated PBMCs)/(the number of PBMCs×the percentage of B cells in untreated PBMCs).

[2] = target: T1, LTA4H (Homo sapiens, UniProt P09960); assay: LTB4 ELISA in THP-1 culture media; conditions: THP-1, 3 μM P4N
T1 construct: THP-1 cells (1×10^6 cells/ml/well) in a 24-well culture plate; endogenous in cells; host or cells: THP-1 cells (BCRC, Hsinchu, Taiwan)
T1 sequence (P09960 1-611): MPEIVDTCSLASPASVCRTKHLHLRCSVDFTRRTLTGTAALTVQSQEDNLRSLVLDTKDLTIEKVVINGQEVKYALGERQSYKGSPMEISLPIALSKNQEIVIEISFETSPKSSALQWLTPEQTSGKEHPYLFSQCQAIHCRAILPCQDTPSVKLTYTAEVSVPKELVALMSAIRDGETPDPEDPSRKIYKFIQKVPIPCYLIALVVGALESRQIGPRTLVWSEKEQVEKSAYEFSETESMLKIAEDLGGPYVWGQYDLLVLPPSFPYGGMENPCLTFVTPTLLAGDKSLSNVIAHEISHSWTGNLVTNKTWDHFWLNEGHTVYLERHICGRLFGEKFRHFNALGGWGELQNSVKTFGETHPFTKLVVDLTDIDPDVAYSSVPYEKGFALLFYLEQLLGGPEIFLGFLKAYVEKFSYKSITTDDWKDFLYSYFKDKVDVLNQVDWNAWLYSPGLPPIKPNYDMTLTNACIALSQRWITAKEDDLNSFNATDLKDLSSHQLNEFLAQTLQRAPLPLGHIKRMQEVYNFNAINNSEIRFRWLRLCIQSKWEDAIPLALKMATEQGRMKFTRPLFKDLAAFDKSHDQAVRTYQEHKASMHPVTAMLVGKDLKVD
Experimental: ELISA assays. THP-1 cells (1×10^6 cells/ml/well) in a 24-well culture plate were pretreated with 10 μM bestatin (a LTA4H inhibitor, Sigma-Aldrich) for 2 h and then treated with 3 μM P4N for various time intervals. The levels of LTB4 in the culture media were determined by the LTB4 (Enzo Life Sciences, Farmingdale, N.Y.) (R&D) ELISA Kits. The amount of TNF-α, IL-8 and Activin A in cultured media were measured in a similar manner.

[3] = tested on: Human B or T cells; assay: Proliferation of isolated human B or T cells, MTT assay
Experimental: FIG. 10 depicts the effects of P4N on cell proliferation. Human B or T cells were isolated from the PBMCs by negative selection using a magnetic sorting device (Miltenyi Biotec, Auburn, Calif.). Cell proliferation was determined by an MTT assay.
Total B-cells were isolated from human PBMCs or mouse splenocytes by negative selection using a magnetic sorting device (Miltenyi Biotec, Auburn, Calif.). Briefly, PBMCs were incubated with a cocktail of biotin-conjugated antibodies, followed by microbead-conjugated anti-biotin Abs for magnetic depletion. B-cells were eluted according to the manufacturer's protocols. Human blood samples were collected from healthy individuals following an IRB-approved protocol and in agreement with the Committee for Research Ethics Board of Chung Shan Medical University Hospital.

[4] = tested on: THP-1 cells; assay: Activin A and BAFF mRNA and protein in THP-1 cells, RT-PCR and ELISA
Experimental: FIGS. 5A-5F depict the expression of Activin A/BAFF induced by P4N treatments. (A) P4N induced Activin A or BAFF expression in human PBMCs as determined by RT-PCR. S1-S5 display different individual blood samples collected from 5 different human donors; N, no treatment; P, P4N-treatment (3 μM). The change in Activin A and BAFF expression (mean of 5 patients) relative to the control (NC) is plotted as a histogram (B) The effect of increasing dosages of P4N for 12 h on mRNA and protein levels of Activin A or BAFF in THP-1 cells was analyzed by RT-PCR and ELISA. (C) The effect of 6 μM P4N on mRNA and protein levels of Activin A or BAFF in THP-1 cells was determined at a different time period. (D) The effect of different inhibitors on Activin A-induced BAFF expression was examined. The expression of BAFF mRNA in inhibitor-treated THP-1 cells was determined by RT-PCR, and (E) BAFF protein secretion was measured by ELISA. (F) The effect of THP-1 conditioned media on the proliferation of Raji cells and OKT3 hybridoma cells were determined. Media were harvested, in which THP-1 cells were pre-treated without inhibitor (2) or with SB431542 (3), A83-01 (4), SIS3 (5), SB203580 (6) or PD98059 (7) and then treated with P4N for 12 h. The results are expressed as % viable cells relative to the control (NC, media from untreated THP-1 cells). All values are the means of triplicate samples±SEM. The significant differences in the results of inhibitor and P4N-treated groups compared with the untreated group are indicated by ***P<0.001.
Reverse transcription PCR. Human PBMCs or THP-1 cells were treated with P4N, and then the mRNA expression of INHBA and BAFF in these cells was measured by reverse transcription PCR. Briefly, total cellular RNA was extracted with Trizol reagent (Invitrogen) and reverse-transcribed into cDNA using the Superscript RT-kit (Invitrogen). The cDNA of INHBA and BAFF were then amplified by PCR. GAPDH cDNA in the samples was used to normalize the loading amounts in each reaction. […]

production of LTA4H reaction product LTB4 [2]: increased the production
SMILES: C[C@H](Cc1ccc(OCCN2CCCCC2)c(OCCN2CCCCC2)c1)[C@@H](C)Cc1ccc(OCCN2CCCCC2)c(OCCN2CCCCC2)c1 [P4N, meso-2,3-dimethyl-1,4-bis(3,4-[2-(piperidino)ethoxyphenyl])butane tetrakishydrochloride salt]
increase of PBMC proliferation ([1]; depending on the dose of P4N (0.38-6 μM), MTT): 10-35%
proliferation of the B cell population in human PBMCs ([1]; flow cytometry): significantly increased
proliferation of T-cell-depleted PBMCs [3]: increased the proliferation
proliferation of isolated T cells or B cells [3]: did not induce the proliferation
time of elevated BAFF expression ([4]; THP-1, 6 μM P4N): 8 h
time of up-regulated mRNA expression of Activin A ([4]; THP-1, 6 μM P4N): 2 h
dose dependence of Activin A and BAFF mRNA and protein levels ([4]; THP-1, increasing dosages of P4N, 12 h): dose-dependent manner
